# Test results published in patent US10934274B2, “Quinoline derivatives as TAM RTK inhibitors” (Qurient Co., Ltd., priority 2015, dated 2021).
# Assays:
# [1] = target: T1, Axl (Homo sapiens, UniProt P30530); assay: LanthaScreen Eu kinase binding assay, Axl; details: Tracer 236
# T1 construct: purchased Life Technologies
# T1 sequence (P30530 26-894): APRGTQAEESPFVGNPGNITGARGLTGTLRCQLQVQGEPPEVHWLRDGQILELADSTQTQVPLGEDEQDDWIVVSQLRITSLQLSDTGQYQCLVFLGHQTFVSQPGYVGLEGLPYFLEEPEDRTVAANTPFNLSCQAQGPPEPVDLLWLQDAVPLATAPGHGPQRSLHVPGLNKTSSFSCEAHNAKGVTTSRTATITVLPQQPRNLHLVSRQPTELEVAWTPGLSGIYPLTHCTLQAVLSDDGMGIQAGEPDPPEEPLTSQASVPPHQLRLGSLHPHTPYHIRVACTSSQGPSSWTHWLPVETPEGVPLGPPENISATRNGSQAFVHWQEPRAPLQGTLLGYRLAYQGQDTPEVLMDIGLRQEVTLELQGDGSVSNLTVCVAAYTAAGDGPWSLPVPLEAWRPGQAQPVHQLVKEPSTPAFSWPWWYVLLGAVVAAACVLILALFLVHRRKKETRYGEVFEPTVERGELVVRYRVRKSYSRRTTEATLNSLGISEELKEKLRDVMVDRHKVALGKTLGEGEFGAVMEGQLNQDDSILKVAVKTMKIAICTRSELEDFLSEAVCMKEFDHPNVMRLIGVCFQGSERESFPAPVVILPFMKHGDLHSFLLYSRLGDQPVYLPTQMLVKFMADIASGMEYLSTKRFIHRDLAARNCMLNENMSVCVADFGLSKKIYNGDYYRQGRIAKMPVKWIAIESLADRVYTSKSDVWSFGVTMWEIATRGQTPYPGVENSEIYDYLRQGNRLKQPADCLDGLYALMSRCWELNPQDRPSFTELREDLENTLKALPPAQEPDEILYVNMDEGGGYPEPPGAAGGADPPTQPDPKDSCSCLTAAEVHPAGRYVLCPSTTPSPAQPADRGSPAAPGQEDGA
# [2] = target: T2, Mer (Homo sapiens, UniProt Q12866); assay: LanthaScreen Eu kinase binding assay, Mer; details: Tracer 236
# T2 construct: purchased Life Technologies
# T2 sequence (Q12866 21-999): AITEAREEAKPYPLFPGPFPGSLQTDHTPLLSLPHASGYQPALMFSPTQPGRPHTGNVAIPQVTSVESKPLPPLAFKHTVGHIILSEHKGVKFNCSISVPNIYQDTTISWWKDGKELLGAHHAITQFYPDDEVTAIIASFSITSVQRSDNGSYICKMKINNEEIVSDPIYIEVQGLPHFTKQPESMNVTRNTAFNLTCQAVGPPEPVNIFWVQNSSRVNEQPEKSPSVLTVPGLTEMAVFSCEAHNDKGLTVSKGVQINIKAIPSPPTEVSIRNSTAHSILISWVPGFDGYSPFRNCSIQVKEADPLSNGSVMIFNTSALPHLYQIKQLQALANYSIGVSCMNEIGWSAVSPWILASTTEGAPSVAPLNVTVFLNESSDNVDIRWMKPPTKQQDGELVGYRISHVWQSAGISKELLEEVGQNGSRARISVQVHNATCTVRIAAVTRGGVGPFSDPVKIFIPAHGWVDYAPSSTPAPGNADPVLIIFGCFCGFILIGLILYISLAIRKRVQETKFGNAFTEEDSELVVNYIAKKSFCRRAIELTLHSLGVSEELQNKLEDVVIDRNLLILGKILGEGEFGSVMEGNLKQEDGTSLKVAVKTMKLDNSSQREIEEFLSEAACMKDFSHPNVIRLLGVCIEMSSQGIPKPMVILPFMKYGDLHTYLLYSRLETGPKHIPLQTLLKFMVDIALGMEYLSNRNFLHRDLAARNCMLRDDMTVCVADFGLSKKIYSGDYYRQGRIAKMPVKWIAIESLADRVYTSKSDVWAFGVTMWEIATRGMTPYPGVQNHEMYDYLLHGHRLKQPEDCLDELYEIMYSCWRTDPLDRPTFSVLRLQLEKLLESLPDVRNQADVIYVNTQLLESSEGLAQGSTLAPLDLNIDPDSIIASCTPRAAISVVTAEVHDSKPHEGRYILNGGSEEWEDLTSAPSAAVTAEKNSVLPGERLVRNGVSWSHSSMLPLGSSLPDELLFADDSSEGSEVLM
SMILES,Kd [1] [nM],Kd [2] [nM]
CCOc1cnn(-c2cncs2)c1C(=O)Nc1ccc(Oc2ccnc3cc(OC)c(OC)cc23)cn1 [Compound 16],< 100,< 100
CCOc1cn(-c2cnccc2CO)nc1C(=O)Nc1ccc(Oc2ccnc3cc(OC)c(OC)cc23)cc1F [Compound 209],< 100,< 100
CCOc1cn(-c2ccc(F)c(CO)c2)nc1C(=O)Nc1ccc(Oc2ccnc3cc(OC)c(OC)cc23)cn1 [Compound 128],< 100,< 100
CCOc1cn(-c2cncnc2C2CC2)nc1C(=O)Nc1ccc(Oc2ccnc3cc(OC)c(OC)cc23)cn1 [Compound 167],< 100,< 100
CCOc1cn(-c2cncn2C)nc1C(=O)Nc1ccc(Oc2ccnc3cc(OC)c(OC)cc23)cn1 [Compound 11],< 100,< 100
CCOc1cn(-c2cnc(C)cn2)nc1C(=O)Nc1ccc(Oc2ccnc3cc(OC)c(OC)cc23)cn1 [Compound 160],< 100,< 100
CCOc1cn(-c2nccnc2C(C)(C)O)nc1C(=O)Nc1ccc(Oc2ccnc3cc(OC)c(OC)cc23)cn1 [Compound 200],< 100,< 100
CCOc1cn(-c2cnccc2C(C)(C)O)nc1C(=O)Nc1ccc(Oc2ccnc3cc(OC)c(OC)cc23)cn1 [Compound 184],< 100,< 100
CCOc1cn(-c2cnccc2C)nc1C(=O)Nc1ccc(Oc2ccnc3cc(OC)c(OC)cc23)cc1F [Compound 151],< 100,< 100
CCOc1cn(-c2c(C)ccnc2C)nc1C(=O)Nc1ccc(Oc2ccnc3cc(OC)c(OC)cc23)c(F)c1 [Compound 188],< 100,< 100
CCOc1cn(-c2ccc(OC(F)(F)F)cc2Cl)nc1C(=O)Nc1ccc(Oc2ccnc3cc(OC)c(OC)cc23)c(F)c1 [Compound 189],< 100,< 100
CCOc1cn(-c2ccc(C(F)(F)F)cc2F)nc1C(=O)Nc1ccc(Oc2ccnc3cc(OC)c(OC)cc23)cn1 [Compound 114],< 100,< 100
CCOc1cn(-c2cnc(N)nc2)nc1C(=O)Nc1ccc(Oc2ccnc3cc(OC)c(OC)cc23)cn1 [Compound 10],< 100,< 100
CCOc1cn(-c2ccc(Cl)cc2C(F)(F)F)nc1C(=O)Nc1ccc(Oc2ccnc3cc(OC)c(OC)cc23)cn1 [Compound 101],< 100,< 100
CCOc1cn(-c2nccnc2Cl)nc1C(=O)Nc1ccc(Oc2ccnc3cc(OC)c(OC)cc23)cn1 [Compound 177],< 100,< 100
CCOc1cn(-c2ccc(OC(F)(F)F)cc2Cl)nc1C(=O)Nc1ccc(Oc2ccnc3cc(OC)c(OC)cc23)cn1 [Compound 115],< 100,< 100
COc1cc2nccc(Oc3ccc(NC(=O)c4nn(-c5cccnc5)cc4OCC(F)(F)F)nc3)c2cc1OC [Compound 185],< 100,< 100
CCOc1cn(-c2cnc(N)nc2)nc1C(=O)Nc1ccc(Oc2ccnc3cc(OC)c(OC)cc23)c(F)c1 [Compound 141],< 100,< 100
CCOc1cn(-c2ccc(F)cc2C)nc1C(=O)Nc1ccc(Oc2ccnc3cc(OC)c(OC)cc23)nn1 [Compound 97],< 100,< 100
CCOc1cn(-c2ccc(C(F)(F)F)cc2C)nc1C(=O)Nc1ccc(Oc2ccnc3cc(OC)c(OC)cc23)cn1 [Compound 99],< 100,< 100
CCOc1cn(C2CCCN(C)C2)nc1C(=O)Nc1ccc(Oc2ccnc3cc(OC)c(OC)cc23)cc1F (centres unmarked) [Compound 211],100 to 1000,100 to 1000
CCOc1cn(-c2ccc(C)cc2F)nc1C(=O)Nc1ccc(Oc2ccnc3cc(OC)c(OC)cc23)cn1 [Compound 100],< 100,< 100

SMILES,Kd [1] [nM],Kd [2] [nM]
CCOc1cn(-c2nccnc2C(F)(F)F)nc1C(=O)Nc1ccc(Oc2ccnc3cc(OC)c(OC)cc23)cn1 [Compound 162],< 100,< 100
COc1cc2nccc(Oc3ccc(NC(=O)c4nn(-c5ccc(OC(F)(F)F)cc5Cl)cc4OCC(F)(F)F)nc3)c2cc1OC [Compound 186],100 to 1000,< 100
CCOc1cn(-c2ccc(F)cc2C(C)C)nc1C(=O)Nc1ccc(Oc2ccnc3cc(OC)c(OC)cc23)cn1 [Compound 125],< 100,< 100
CCOc1cn(-c2ccc(N)nc2)nc1C(=O)Nc1ccc(Oc2ccnc3cc(OC)c(OC)cc23)cn1 [Compound 6],< 100,< 100
CCOc1cnn(-c2ccc(Cl)c(CN(C)C)c2)c1C(=O)Nc1ccc(Oc2ccnc3cc(OC)c(OC)cc23)cn1 [Compound 130],< 100,< 100
CCOc1cn(-c2ccc(C(C)C)cc2)nc1C(=O)Nc1ccc(Oc2ccnc3cc(OC)c(OC)cc23)cn1 [Compound 116],< 100,< 100
CCOc1cn(-c2ccc(C(F)(F)F)cc2C(F)(F)F)nc1C(=O)Nc1ccc(Oc2ccnc3cc(OC)c(OC)cc23)cn1 [Compound 105],< 100,< 100
CCOc1cn(-c2ccc(OC(F)(F)F)cc2F)nc1C(=O)Nc1ccc(Oc2ccnc3cc(OC)c(OC)cc23)cn1 [Compound 120],< 100,< 100
CCOc1cn(-c2ccc(OC(F)(F)F)cc2C)nc1C(=O)Nc1ccc(Oc2ccnc3cc(OC)c(OC)cc23)cn1 [Compound 113],< 100,< 100
CCOc1cn(-c2cnccc2CO)nc1C(=O)Nc1ccc(Oc2ccnc3cc(OC)c(OC)cc23)cn1 [Compound 179],< 100,< 100
CCOc1cn(-c2cnccc2C(F)(F)F)nc1C(=O)Nc1ccc(Oc2ccnc3cc(OC)c(OC)cc23)cn1 [Compound 170],< 100,< 100
CCOc1cn(-c2cnccc2C(C)(O)CO)nc1C(=O)Nc1ccc(Oc2ccnc3cc(OC)c(OC)cc23)cn1 (centres unmarked) [Compound 205],< 100,< 100
CCOc1cn(-c2ccc(F)cc2C(F)(F)F)nc1C(=O)Nc1ccc(Oc2ccnc3cc(OC)c(OC)cc23)cn1 [Compound 104],< 100,< 100
CCOc1cn(-c2ccnc(O)c2)nc1C(=O)Nc1ccc(Oc2ccnc3cc(OC)c(OC)cc23)cn1 [Compound 7],≥ 1000,< 100
CCOc1cn(-c2nc[nH]n2)nc1C(=O)Nc1ccc(Oc2ccnc3cc(OC)c(OC)cc23)cn1 [Compound 168],< 100,< 100
CCOc1cn(-c2cnccc2C(C)=O)nc1C(=O)Nc1ccc(Oc2ccnc3cc(OC)c(OC)cc23)cn1 [Compound 182],< 100,< 100
CCOc1cnn(-c2ccc(C(F)(F)F)cc2C(F)(F)F)c1C(=O)Nc1ccc(Oc2ccnc3cc(OC)c(OC)cc23)cn1 [Compound 110],< 100,100 to 1000
CCOc1cn(-c2ccc(Cl)cc2F)nc1C(=O)Nc1ccc(Oc2ccnc3cc(OC)c(OC)cc23)cn1 [Compound 106],< 100,< 100
CCOc1cn(-c2cnccc2C(C)(C)O)nc1C(=O)Nc1ccc(Oc2ccnc3cc(OC)c(OC)cc23)cc1F [Compound 197],< 100,< 100
CCOc1cn(-c2cnccc2Cl)nc1C(=O)Nc1ccc(Oc2ccnc3cc(OC)c(OC)cc23)cc1F [Compound 194],< 100,< 100
CCOc1cn(-c2cccnc2)nc1C(=O)Nc1ccc(Oc2ccnc3cc(OC(C)CC)c(OC)cc23)cn1 (centres unmarked) [Compound 206],< 100,< 100
